In brackets after ≈: the same amount, converted by molar mass. Like-named read-outs stand apart in the source and are kept apart here.
How the values were obtained:
Escherichia coli = test: In-vitro antibacterial test, agar dilution MIC; format: cell-based; conditions: Escherichia coli; agar dilution; read-out: In-vitro MIC
Excerpt: (§4) The test bacterial strains were the standard quality control test strains of Klebsiella pneumoniae strains (Strains No. CMCC 46114-8), Pseudomonas aeruginosa (Strains No. ATCC 27853), Escherichia coli (Strains No. ATCC25922), and Staphylococcus aureus cocci (Strains No. ATCC25925). Other bacteria included those isolated from sputum, throat swab or urine of patients with acute bacterial respiratory tract infection or urinary tract infection and identified by the hospitals.
(§5) HCl levofloxacin injection and NaCl ciprofloxacin lactate injection were diluted with sterilized distilled water to a concentration of 1920 μg/mL.

rats = conditions: rat, in vivo; cited from earlier work
Streptococcus pneumoniae = test: In-vitro antibacterial test, agar dilution MIC; format: cell-based; conditions: Streptococcus pneumoniae; agar dilution; read-out: In-vitro MIC
Method: (§1) Test method: the agar dilution method was used for the minimum inhibitory concentration (MIC) determination. The antibacterial chemicals were mixed with given amounts of agar in various concentrations and the mixtures were made into solid plates. Each plate had the antibacterial concentration two times higher than the next plate. Bacteria species were then added to the surface of the plates, cultured, and observed for their growth.
(§2) Other bacteria included those isolated from sputum, throat swab or urine of patients with acute bacterial respiratory tract infection or urinary tract infection and identified by the hospitals.
(§3) (S)-6-fluoro-1-methyl-4-oxo-7-(1-piperazinyl)-1H,4H-[1,3]thiazeto[3,2-a]quino line-3-carboxylic acid lactate and other test samples, equivalent to 96 mg of ulifloxacin, were dissolved in sterilized distilled water to make up 50 mL of each solution.

Pseudomonas aeruginosa = test: In-vitro antibacterial test, agar dilution MIC; format: cell-based; conditions: Pseudomonas aeruginosa, read-out: In-vitro MIC
Excerpt: as §4, §5

Sprague-Drwlog rats = conditions: intravenous injection, four weeks; cited from earlier work
Staphylococcus aureus = test: In-vitro antibacterial test, agar dilution MIC; format: cell-based; conditions: Staphylococcus aureus, read-out: In-vitro MIC
Excerpt: as §4, §5

Enterobacter cloacae = test: In-vitro antibacterial test, agar dilution MIC; format: cell-based; conditions: agar dilution, read-out: In-vitro MIC
Excerpt: as §4, §5

mice = conditions: mouse, in vivo; cited from earlier work
[1] = test system: New Zealand rabbit ear vein and surrounding tissues; test: Vascular irritation tests; format: in vivo, New Zealand rabbits; conditions: vein injection once a day for 3 days, high and low doses
Excerpt: Sixteen New Zealand rabbits were divided into 4 groups: a control group and three treatment groups for compounds 4, 5, and 6, respectively; each group had 4 rabbits. The rabbits of the treatment groups were vein-injected on their left ears with high doses of the test samples and on their right ears with low doses of the test samples. The rabbits of the control group were rein-injected on their both left and right ears with sodium chloride solution. The injections continued for 3 days, once a day. Two rabbits from each group were anatomized after 24 hours of each injection.

Enterococcus faecalis = test: In-vitro antibacterial test, agar dilution MIC; format: cell-based; conditions: read-out: In-vitro MIC
Excerpt: as §4, §5

[2] = test system: Klebsiella pneumoniae, Pseudomonas aeruginosa, Staphylococcus aureus, Escherichia coli, Enterococcus faecalis, Streptococcus pneumoniae, Enterobacter cloacae …; test: In-vitro antibacterial tests, summary over the tested bacteria; format: cell-based
Method: as §1, §2, §3

Vibrio cholerae = test: In-vitro antibacterial test, agar dilution MIC; format: cell-based; conditions: Vibrio cholerae, read-out: In-vitro MIC
Excerpt: as §4, §5

Klebsiella pneumoniae = test: In-vitro antibacterial test, agar dilution MIC; format: cell-based; conditions: Klebsiella pneumoniae
Excerpt: as §4, §5

[3] = Solubility test: maximum solubility in water; format: physicochemical; conditions: 25 °C, water, thermodynamic from solid
Method: Three lots of mesylates and three lots of lactates, respectively, were subjected to preliminary tests for maximum solubility in water. At ambient temperature (25° C.), 0.2 g of sample was dissolved in 1 mL of water. To the solution was added 0.1 g of the sample each time until the sample could no longer be dissolved. The amount of sample dissolved was the maximum solubility.

[4] = high dose group (60 mg/kg·bw), after 28 days, tissue microscopy

Method for SD rats: The dose without toxic reaction was thereby determined and the long term toxicity to SD rats was tested. One hundred forty SD rats were randomly divided into 7 groups depending on their body weight and sex; each group had 20 rats with 10 males and 10 females. […] The rats were administrated by intravenous injection, once a day for consecutive 4 weeks. The recovery was monitored for 2 weeks after treatment.
Drug preparation: the drugs were dissolved with a saline solution to the desired concentration before administration. Administration: intravenous injection. Delivery period: 28 days continuously. Observation and inspection: Observation and inspection projects, targets and time: including the general state of observation (7), hematologic (16), biochemical blood test (18), urine (10) and pathological examination.
General observation: the appearance of signs, behavior, glands, respiratory and stool, daily observation and timely recording, discovering dead or dying animals, timely anatomical examination, food intake, and body weight once weekly.
Blood tests: abdominal aortic blood for hematology testing, in the 16 testing indicators, leukocyte classification using whole blood smear, Wright stain staining; prothrombin time (PT) with a 0.109 mmol/L of citrate Citrus medica sodium (with blood volume ratio of 1:9) anticoagulant, 3000 r/min centrifugal 10 min, taking with BE Thromotimer plasma coagulation analyzer (Germany) determination; other indicators to EDTA anticoagulant, using SWELAB AC920EO automated hematology analyzer (Sweden).
Biochemical blood tests: blood sampling method same as above, blood serum obtained by 3000 r/min centrifugal 10 min. In the 21 indicators, the Na+, K+, Cl^− were determined using EasyLyte Plus Na/K/Cl analyzer (USA), the other indexes of blood were determined using a Hitachi 7020 automatic biochemical analyzer (Japan) determination.
Urine tests: 16 h urine collection, using [sequence] 100 urine analyzer.
Pathology: after anesthesia, the animal was killed by blood letting of the abdominal aorta. System anatomy and visual observation of changes in various organs were performed; and organ weights were determined. Tissue was fixed in 10% neutral formalin; plates were made by conventional paraffin producers, HE staining, and light microscopy.
Statistical analysis: In the different groups, the body weight, hematology, blood chemistry, urine measurements, organ weights, organ coefficient were calculated for the mean±standard deviation and t-test comparison between groups. Pathological abnormalities according to their incidence and severity were compared between groups.

In the case of `CC1Sc2c(C(=O)O)c(=O)c3cc(F)c(N4CCNCC4)cc3n21` (racemic) [Ulifloxacin, 6-fluoro-1-methyl-4-oxo-7-(1-piperazinyl)-1H,4H-[1,3]thiazeto[3,2-a]quinoline-3-carboxylic acid, reference compound], the MIC (Escherichia coli) is listed as 0.08 µg/mL (≈ 0.229 µM), the “toxic effects of intravenous injection” value (rats) is listed as “convulsions, difficult breathing, injection site redness, swelling, and necrosis” and the MIC (Streptococcus pneumoniae) is listed as 0.031 µg/mL (≈ 0.0887 µM). For the same molecule, the MIC (Pseudomonas aeruginosa; agar dilution) was 0.5 µg/mL (≈ 1.43 µM), the “NOAEL (no observed adverse effect level) dose” value (Sprague-Drwlog rats) was 3 mg/kg and the MIC (Staphylococcus aureus; agar dilution) was 0.5 µg/mL (≈ 1.43 µM). For the same molecule, the MIC (Enterobacter cloacae) was 1 µg/mL (≈ 2.86 µM) and the “toxic effects of intravenous injection” value (mice) was “losing weight, testicular atrophy, and visible pulmonary congestion”.
For `CS(=O)(=O)O.C[C@@H]1Sc2c(C(=O)O)c(=O)c3cc(F)c(N4CCNCC4)cc3n21` [Compound 5, (S)-6-fluoro-1-methyl-4-oxo-7-(1-piperazinyl)-1H,4H-[1,3]thiazeto[3,2-a]quinoline-3-carboxylic acid mesylate], the “NOAEL (no observed adverse effect level)” value (SD rats; SD rats, 28 days continuous intravenous administration, calculated based on NM394) was 30 mg/kg·bw, the “targeted organ of toxicity” value (SD rats; SD rats, intravenous) was “the kidney” and the “rats with crystals in renal tubules” value (SD rats; [4]) was “two”. The “rats with kidney protein casts” value (SD rats; [4]) was “one”, the “rats with mild cortical tubular dilatation” value (SD rats; [4]) was “two” and the “irritation to ear vein and surrounding tissues” value [1] was “no irritation”. The MIC (Enterococcus faecalis) was 0.2 µg/mL, the “antibacterial activities compared with compounds 7 and 8” value ([2]; against the above four bacteria, concentrations calculated as equivalents to NM394) was “slightly stronger” and the “antibacterial activity (in words)” value ([2]; against the eight tested bacteria) was “relatively strong antibacterial activity”. For the same molecule, the MIC (Streptococcus pneumoniae) was 0.01 µg/mL, the MIC (Pseudomonas aeruginosa) was 0.25 µg/mL and the MIC (Staphylococcus aureus) was 0.25 µg/mL. For the same molecule, the MIC (Vibrio cholerae) was 0.02 µg/mL, the MIC (Klebsiella pneumoniae) was 0.02 µg/mL and the MIC (Enterobacter cloacae) was 0.5 µg/mL. It also gave a solubility [3] of 490 mg/mL.

Source: US20110028444A1, “PHARMACEUTICALLY ACCEPTABLE SALTS OF ANTI-INFECTION QUINOLONE COMPOUNDS” (priority 2008, published 2011)
